Data on 6 compounds can be found in ChEMBL document CHEMBL4311993, “Structure-activity relationship study of NPP1 inhibitors based on uracil-N1-(methoxy)ethyl-β-phosphate scaffold” (Eur J Med Chem, 2019).

Calls of active or inactive are those of the source.

Assay [1] deals with T1, Ectonucleoside triphosphate diphosphohydrolase 2 (Homo sapiens) (UniProt Q9Y5L3).
T1 sequence (whole entry): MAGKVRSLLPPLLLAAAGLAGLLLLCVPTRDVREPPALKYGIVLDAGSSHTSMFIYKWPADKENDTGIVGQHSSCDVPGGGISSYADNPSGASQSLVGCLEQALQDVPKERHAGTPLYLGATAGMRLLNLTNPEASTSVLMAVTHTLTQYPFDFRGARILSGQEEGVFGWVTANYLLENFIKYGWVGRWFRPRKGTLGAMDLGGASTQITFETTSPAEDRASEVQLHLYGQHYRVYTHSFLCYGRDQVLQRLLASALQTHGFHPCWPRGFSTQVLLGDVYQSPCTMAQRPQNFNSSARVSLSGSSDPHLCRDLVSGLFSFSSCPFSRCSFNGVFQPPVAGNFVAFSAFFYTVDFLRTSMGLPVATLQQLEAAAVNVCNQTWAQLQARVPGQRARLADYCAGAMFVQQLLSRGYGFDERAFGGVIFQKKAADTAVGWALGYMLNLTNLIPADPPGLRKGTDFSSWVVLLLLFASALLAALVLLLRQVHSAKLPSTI
As to the kind of experiment: Inhibition of human NTPdase-2 expressed in COS7 cell membranes at 100 uM using ATP as substrate preincubated for 3 mins followed by susbtrate addition and measured after 10 mins by malachite green dye based method.

Assay [2] concerns the target P2Y purinoceptor 2 (Homo sapiens) (UniProt P41231). As to the kind of experiment: Antagonist activity at human P2Y2 receptor expressed in AD293 cells assessed as inhibition of UTP-induced inositol-1-phosphate accumulation at 100 uM. The format is functional, cell-based.
For assay [3], the target named is T2, Ectonucleoside triphosphate diphosphohydrolase 8 (Homo sapiens) (UniProt Q5MY95).
T2 sequence (whole entry): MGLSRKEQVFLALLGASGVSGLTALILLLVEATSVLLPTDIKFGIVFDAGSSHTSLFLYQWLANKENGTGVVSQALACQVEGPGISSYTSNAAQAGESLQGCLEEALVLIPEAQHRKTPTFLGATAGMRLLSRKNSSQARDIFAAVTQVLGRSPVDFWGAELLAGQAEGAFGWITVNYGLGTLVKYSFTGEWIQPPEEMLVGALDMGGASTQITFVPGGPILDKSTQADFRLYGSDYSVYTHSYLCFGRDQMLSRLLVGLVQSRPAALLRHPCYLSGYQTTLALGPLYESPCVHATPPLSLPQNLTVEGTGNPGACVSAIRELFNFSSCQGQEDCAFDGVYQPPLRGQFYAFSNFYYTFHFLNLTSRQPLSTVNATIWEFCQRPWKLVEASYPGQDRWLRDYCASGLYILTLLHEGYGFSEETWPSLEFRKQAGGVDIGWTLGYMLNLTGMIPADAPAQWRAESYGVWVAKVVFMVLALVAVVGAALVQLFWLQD
Put plainly: Inhibition of human NTPdase-8 expressed in COS7 cell membranes at 100 uM using ATP as substrate preincubated for 3 mins followed by susbtrate addition and measured after 10 mins by malachite green dye based method.

Assay [4] addresses P2Y purinoceptor 6 (Homo sapiens) (UniProt Q15077). As to the kind of experiment: Antagonist activity at human P2Y6 receptor expressed in AD293 cells assessed as inhibition of UDP-induced inositol-1-phosphate accumulation at 0.1 to 100 uM. The assay is classed as functional, cell-based.
Assay [5] concerns the target P2Y purinoceptor 4 (Homo sapiens) (UniProt P51582). Put plainly: Agonist activity at human P2Y4 receptor expressed in AD293 cells assessed as inositol-1-phosphate accumulation at 0.1 to 100 uM. The assay is classed as functional, cell-based.
The target is the same in assay [6]. As to the kind of experiment: Antagonist activity at human P2Y4 receptor expressed in AD293 cells assessed as inhibition of UTP-induced inositol-1-phosphate accumulation at 0.1 to 100 uM. The assay is classed as functional, cell-based.
The target in assay [7] is T3, Ectonucleoside triphosphate diphosphohydrolase 3 (Homo sapiens) (UniProt O75355).
T3 sequence (whole entry): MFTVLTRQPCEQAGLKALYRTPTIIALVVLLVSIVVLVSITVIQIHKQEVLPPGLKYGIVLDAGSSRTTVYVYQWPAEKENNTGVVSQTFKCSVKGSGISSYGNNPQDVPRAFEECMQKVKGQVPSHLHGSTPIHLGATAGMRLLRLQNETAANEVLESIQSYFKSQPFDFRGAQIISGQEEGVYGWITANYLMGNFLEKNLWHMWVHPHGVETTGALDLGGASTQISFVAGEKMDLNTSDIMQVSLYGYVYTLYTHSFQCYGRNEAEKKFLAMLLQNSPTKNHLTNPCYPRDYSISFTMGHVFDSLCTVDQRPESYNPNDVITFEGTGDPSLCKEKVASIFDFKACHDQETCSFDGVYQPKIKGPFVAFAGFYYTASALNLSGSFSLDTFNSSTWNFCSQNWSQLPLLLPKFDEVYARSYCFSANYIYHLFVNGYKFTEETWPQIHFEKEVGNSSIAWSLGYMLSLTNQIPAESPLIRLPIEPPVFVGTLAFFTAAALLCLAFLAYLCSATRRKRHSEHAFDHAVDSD
As to the kind of experiment: Inhibition of human NTPdase-3 expressed in COS7 cell membranes at 100 uM using ATP as substrate preincubated for 3 mins followed by susbtrate addition and measured after 10 mins by malachite green dye based method.

Assay [8] addresses T4, Ectonucleoside triphosphate diphosphohydrolase 1 (Homo sapiens) (UniProt P49961).
T4 sequence (whole entry): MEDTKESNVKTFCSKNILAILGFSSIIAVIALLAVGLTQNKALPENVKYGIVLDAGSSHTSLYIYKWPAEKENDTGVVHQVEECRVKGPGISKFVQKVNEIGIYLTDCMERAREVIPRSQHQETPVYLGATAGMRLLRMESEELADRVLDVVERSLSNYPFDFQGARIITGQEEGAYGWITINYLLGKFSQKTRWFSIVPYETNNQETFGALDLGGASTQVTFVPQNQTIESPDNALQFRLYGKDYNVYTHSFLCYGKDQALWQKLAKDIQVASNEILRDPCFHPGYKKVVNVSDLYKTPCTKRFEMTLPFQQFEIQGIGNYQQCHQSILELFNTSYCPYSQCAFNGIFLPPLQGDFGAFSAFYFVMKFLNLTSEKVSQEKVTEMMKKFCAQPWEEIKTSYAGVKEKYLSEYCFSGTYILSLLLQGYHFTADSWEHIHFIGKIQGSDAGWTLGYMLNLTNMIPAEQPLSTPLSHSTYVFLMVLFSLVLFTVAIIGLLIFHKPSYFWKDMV
As to the kind of experiment: Inhibition of human NTPdase-1 expressed in COS7 cell membranes at 100 uM using ATP as substrate preincubated for 3 mins followed by susbtrate addition and measured after 10 mins by malachite green dye based method.

P2Y purinoceptor 4 (Homo sapiens), sequence (P51582 whole entry): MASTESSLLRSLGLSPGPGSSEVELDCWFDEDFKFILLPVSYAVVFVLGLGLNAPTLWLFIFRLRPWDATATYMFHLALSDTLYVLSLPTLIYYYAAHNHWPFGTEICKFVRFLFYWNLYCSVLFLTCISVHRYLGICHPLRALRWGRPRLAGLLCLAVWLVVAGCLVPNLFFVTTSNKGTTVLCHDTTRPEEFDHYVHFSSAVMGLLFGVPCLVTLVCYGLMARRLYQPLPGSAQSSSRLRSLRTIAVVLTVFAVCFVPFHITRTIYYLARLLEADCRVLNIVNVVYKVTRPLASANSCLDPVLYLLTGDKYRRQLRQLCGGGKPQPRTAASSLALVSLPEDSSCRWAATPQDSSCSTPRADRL
P2Y purinoceptor 2 (Homo sapiens), sequence (P41231 whole entry): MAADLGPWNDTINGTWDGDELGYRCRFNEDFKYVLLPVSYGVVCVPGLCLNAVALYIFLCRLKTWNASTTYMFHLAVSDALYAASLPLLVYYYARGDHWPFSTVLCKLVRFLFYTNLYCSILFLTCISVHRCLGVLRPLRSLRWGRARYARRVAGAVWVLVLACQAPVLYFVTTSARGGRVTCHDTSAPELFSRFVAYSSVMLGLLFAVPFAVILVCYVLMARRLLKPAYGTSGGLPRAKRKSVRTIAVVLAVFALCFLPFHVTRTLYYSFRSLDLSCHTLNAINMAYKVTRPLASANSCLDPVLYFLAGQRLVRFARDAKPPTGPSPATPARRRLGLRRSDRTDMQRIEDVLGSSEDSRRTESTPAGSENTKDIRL
P2Y purinoceptor 6 (Homo sapiens), sequence (Q15077 whole entry): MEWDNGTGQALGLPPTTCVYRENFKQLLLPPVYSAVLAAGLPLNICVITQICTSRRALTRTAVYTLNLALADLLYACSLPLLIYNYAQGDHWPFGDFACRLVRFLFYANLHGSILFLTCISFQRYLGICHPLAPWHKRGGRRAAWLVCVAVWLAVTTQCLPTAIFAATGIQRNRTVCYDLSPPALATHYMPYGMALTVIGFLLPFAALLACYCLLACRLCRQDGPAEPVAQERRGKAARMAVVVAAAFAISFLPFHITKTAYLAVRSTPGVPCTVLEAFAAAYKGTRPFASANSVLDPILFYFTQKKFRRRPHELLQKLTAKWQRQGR

In the case of `O=c1ccn(COCCOP(=O)(O)C(Cl)(Cl)P(=O)(O)O)c(=O)[nH]1`, the inhibition result in assay [1] and in assay [7] was “Active” in each case. The inhibition result in assay [2], in assay [4] and in assay [6] was “inactive” throughout. Also, the “Inhibition call (active/not active)” value in assay [3] is “Active”. In addition, the result in assay [5] was inactive. Further, the “inhibition call at 100 uM (active/not active)” value in assay [8] was “Active”.
Regarding `O=c1ccn(COCCOP(=S)(S)OP(=O)(O)C(Cl)(Cl)P(=O)(O)O)c(=O)[nH]1` (configuration not stated), the inhibition entry in assay [1] and in assay [7] was “Active” each time. Further, the inhibition result in assay [2], in assay [4] and in assay [6] was “inactive” throughout. The “Inhibition call (active/not active)” value in assay [3] was “Active”. Further, in assay [5], the outcome was inactive. Besides, the “inhibition call at 100 uM (active/not active)” value in assay [8] is “Active”.
As to `O=c1ccn(COCCOP(=S)(S)OP(=O)(O)CP(=O)(O)O)c(=O)[nH]1` (configuration not stated), the inhibition result in assay [1] and in assay [7] was “Active” throughout. For the same compound, the inhibition result in assay [2], in assay [4] and in assay [6] was “inactive” throughout. Further, the “Inhibition call (active/not active)” value in assay [3] is “Active”. In addition, the outcome in assay [5] was inactive. In assay [8], the “inhibition call at 100 uM (active/not active)” value was “Active”.
Take `O=c1ccn(COCCO[PH](=O)O)c(=O)[nH]1`: the inhibition entry in assay [1], in assay [2], in assay [4], in assay [6] and in assay [7] was “inactive” in each case. Further, the “Inhibition call (active/not active)” value in assay [3] was “inactive”. In addition, the result in assay [5] was inactive. Further, the “inhibition call at 100 uM (active/not active)” value in assay [8] is “inactive”.
As to `O=c1ccn(COCCOP(=O)(O)CP(=O)(O)O)c(=O)[nH]1`, the inhibition result in assay [1] and in assay [7] was “Active” throughout. Also, the “Inhibition call (active/not active)” value in assay [3] is “Active”. The inhibition result in assay [4] and in assay [6] was “inactive” each time. The result in assay [5] was inactive. Also, the “inhibition call at 100 uM (active/not active)” value in assay [8] was “Active”.
With `O=c1ccn(COCCOP(=O)(O)O)c(=O)[nH]1`, the inhibition result in assay [1], in assay [2], in assay [4], in assay [6] and in assay [7] was “inactive” each time. In addition, in assay [3], the “Inhibition call (active/not active)” value was “inactive”. The result in assay [5] was inactive. For the same compound, the “inhibition call at 100 uM (active/not active)” value in assay [8] is “inactive”.
